“Also recorded” adds a separate entry of the source.
Experiments:
rat connexin 26 (Cx26) = biological target: T1, rat connexin 26 (Cx26) (Rattus norvegicus, UniProt P21994); assay: Dye-transfer assay, GJIC through connexin 26 (HeLa-Cx26); type: cell-based; conditions: for connexin 26 inhibitory activity: result in words
T1 construct: expressed in transfected cells; host or cells: HeLa cell subclone HeLa-Cx26 (human uterocervical squamous carcinoma)
Protocol: (§1) Next, with respect to each oleamide derivative synthesized by the method described above, we studied whether each derivative inhibited connexin 26 (in other words, whether each one inhibited the transfer of a substance from one cell to another through a gap junction formed by the connexin 26). The experimental method was the same as that described in International Publication WO 2004/060398. Each gap junction intercellular communication (GJIC) score of each test substance was evaluated by dye-transfer assay.
(§2) In the same manner as in the method described in the above-mentioned publication, human uterocervical squamaous carcinoma cells (HeLa cells) were used for the experiment. More specifically, HeLa cell subclones (HeLa-Cx26 and HeLa-Cx43) were used, and they stably expressed rat connexin 26 (Cx26) and rat connexin 43 (Cx43), respectively. All cells (including those in the examples described later) were incubated in Dulbecco's modified eagle's medium (DMEM) with 10% fetal calf serum (FCS) added.
(§3) A day before the assay, the HeLa-Cx26 and HeLa-Cx43 cells each were suspended individually in DMEM containing 10% FCS. The respective cells were divided to be cultured as donor cells and recipient cells. The recipient cells were cultured in a culture dish with a diameter of 3 cm and were adjusted to yield subconfluent monolayers at the time of assay.
In the assay, first, both the dyes of calcein (gap junction-permeable) and DiI (gap junction-impermeable) were added to the culture of donor cells at concentrations of 10 μM and 2 μM, respectively, and incubated for one hour. Double-labeled donor cells were trypsinized and washed three times with phosphate-buffered saline. Thereafter each single donor cell was overlaid gently on unlabeled recipient cells. It took one hour for the donor cell to settle over a monolayer. […] Dye transfer from a donor cell to an adjacent recipient cell through a gap junction was observed.
In order to evaluate the inhibitory activity of each test substance with respect to the dye-coupling, one hour after the donor cells were planted, oleamide and the multimeric oleamide derivatives described above each were dissolved in ethanol, and 10 μL thereof was then added to each culture dish so that the final concentration was 20 μM. For control, ethanol diluted 1000 times was added to a culture dish.
In FIG. 2, since the donor cell indicated with a “*” mark contains both the calcein (green fluorescence) and DiI (red fluorescence), it is shown in yellow in the original drawing. Furthermore, when gap junction-permeable calcein is transferred to a recipient cell through a gap junction by the dye coupling, this cell is shown in green. With such an assay, the GJIC score of each test substance is evaluated as follows.
(§4) That is, the evaluation was made as “0” where no dye-coupling of a donor cell is found, “1” where the dye-coupling of a donor cell to an adjacent recipient cell is found, “2” and “3” in cases where calcein that has been transferred to the adjacent recipient cell is transferred to the second and third adjacent cells in a direction away from the donor cell, respectively, and so on. Also, as shown with arrows in the drawing, the extent of cell dyeing was evaluated with four levels of 0.25, 0.5, 0.75, and 1.0 as intermediate levels.
(§5) Such an assay was carried out three times repeatedly. […] Then the average value and standard deviation of the GJIC scores of the respective test substances were calculated. […]

rat connexin 43 (Cx43) = biological target: T2, rat connexin 43 (Cx43) (Rattus norvegicus, UniProt P08050); assay: Dye-transfer assay, GJIC through connexin 43 (HeLa-Cx43); type: cell-based; conditions: for connexin 43 inhibitory activity: HeLa-Cx43, 20 μM, result in words
T2 construct: expressed in transfected cells; host or cells: HeLa cell subclone HeLa-Cx43 (human uterocervical squamous carcinoma)
T2 sequence (P08050 2-382 limits assumed): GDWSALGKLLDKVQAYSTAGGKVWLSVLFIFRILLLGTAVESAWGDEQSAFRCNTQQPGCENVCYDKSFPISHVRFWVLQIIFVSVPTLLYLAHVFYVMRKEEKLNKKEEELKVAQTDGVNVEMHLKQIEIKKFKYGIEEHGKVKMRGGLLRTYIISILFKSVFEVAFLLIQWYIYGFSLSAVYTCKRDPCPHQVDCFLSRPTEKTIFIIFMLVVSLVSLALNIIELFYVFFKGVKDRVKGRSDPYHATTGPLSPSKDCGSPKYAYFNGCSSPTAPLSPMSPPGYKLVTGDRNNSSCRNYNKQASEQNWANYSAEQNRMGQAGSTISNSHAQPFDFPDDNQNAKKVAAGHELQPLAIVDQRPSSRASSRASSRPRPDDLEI
Protocol: as §1, §2, §3
In the assay, first, both the dyes of calcein (gap junction-permeable) and DiI (gap junction-impermeable) were added to the culture of donor cells at concentrations of 10 μM and 2 μM, respectively, and incubated for one hour. Double-labeled donor cells were trypsinized and washed three times with phosphate-buffered saline. Thereafter each single donor cell was overlaid gently on unlabeled recipient cells. It took one hour for the donor cell to settle over a monolayer. […]
In FIG. 2, since the donor cell indicated with a “*” mark contains both the calcein (green fluorescence) and DiI (red fluorescence), it is shown in yellow in the original drawing. […] With such an assay, the GJIC score of each test substance is evaluated as follows.
as §4, §5

[1] = system: BL6 cells (substrains of B16 mouse melanoma cells); type: in vivo
Protocol: The experiment was carried out by the same method as that described in International Publication WO 2004/060398. That is, after subcutaneously inoculating 1×10^5 BL6 cells (substrains of B16 mouse melanoma cells) to a planter of each 4-week-old C57BL/6 mouse, the mice were classified into two groups.
(1) MI-22 administration group: a group of mice subjected to intraperitoneal injection of MI-22 (10 mg) dissolved in olive oil (10 mL) so as to be 0.01 mL per 1 g of the weight of a mouse, once a day (about 0.2 mL per administration) on consecutive days
(2) Nontreatment (Nt) group: a group of mice subjected to no drug administration/treatment by injection.
This treatment was carried out on consecutive days from the next day of the BL6 cells inoculation. When tumors that had formed at the inoculation sites grew to have diameters of about 7 mm, the legs with the tumors were removed by amputation at the knee joints. Then the above-mentioned treatment was carried out for another two days after the amputation. Thereafter the mice were fed without being treated. Four weeks after the amputations at the knee joints, the mice were euthanized, and metastasized tubercles that had formed at the pleura surface in the left and right lungs (the number of foci that metastasized to the lungs) were counted visually. An evaluation was made using 15 mice per each group.

Az521 cells [2] = assay: Cytotoxicity assay (cell growth inhibitory potential), trypan blue cell count; type: cell-based, human; conditions: Az521 cells in culture, 6-48 hours, FIG. 6
Protocol: In order to examine the cytotoxicity (cell growth inhibitory potential) of MI-22, approximately 1×10^5 Az521 cells, which were human gastric cancer cells, were plated in each petri dish with a diameter of 3.5 cm and were cultured in the presence or absence (control) of MI-22. Then 6, 12, 24, 36, and 48 hours after the start of culture, the cells in each petri dish were taken off with trypsin-EDTA and then centrifuged. Thereafter the cells were dissolved in 10% FBS-containing DMEM, and then 10 μL of trypan blue was added to 10 μL thereof. After that, the number of cells was counted by the use of a counting chamber. The results are shown in the graphs in FIG. 6. The vertical axis indicates the number of cells, and the horizontal axis indicates the time. The graphs show averages of the results of experiments performed three times.

Az521 cells [3] = assay: Cancer growth inhibition (antitumor effect), Az521 cells implanted subcutaneously in nude mice; type: in vivo, mouse
Protocol: Az521 cells, which were human gastric cancer cells, were implanted subcutaneously into the back of each nude mouse. Then the cancer growth inhibitory effect (antitumor effect) provided by MI-22 peritoneal administration was examined. More specifically, 1-2×10^5 Az521 cells were injected subcutaneously into the back of each 4-week-old BALB/c nude mouse (nu/nu). Three days before the subcutaneous implantation, 0.1 mL of a solution containing MI-22 (10 mg) dissolved in olive oil (10 mL) was injected intraperitoneally. After the subcutaneous implantation, MI-22 was administered intraperitoneally in the same manner twice a week. For the control mice group, no drug administration/treatment by injection was carried out.
The sizes of tumors formed after the subcutaneous implantation were observed, and then the antitumor effect of MI-22 was evaluated with the weight of the tumors being measured over time. The results are shown in the graph in FIG. 7. The vertical axis indicates the weight (mg) of tumors, and the horizontal axis indicates the number of days after the subcutaneous implantation. The average values of six tumors are shown with respect to three nude mice.

[4] = Solubility in organic solvent (handling property); type: physicochemical
[5] = HeLa-Cx26, 20 μM, dye-transfer assay

## CCCCCCCC[C@H]1O[C@H]1CCCCCCCC(=O)NCCCCN(CCCNC(=O)CCCCCCC[C@@H]1O[C@@H]1CCCCCCCC)C(=O)CCCCCCC[C@@H]1O[C@@H]1CCCCCCCC (relative stereo) [MI-51, N^1-{3-[8-{(2S*,3R*)-3-Octyl-oxiranyl}-octanoyl]-N-[4-{8[(2S*,3R*)-3-octyl-oxiranyl]-octanoylamino}-butyl]-aminopropyl}-{8-(2S*,3R*)-3-octyl-oxiranyl}octanamide]
Rat connexin 26 (Cx26); HeLa-Cx26, 20 μM, visual observation
  connexin 26 inhibitory activity as compared to the control by visual observation: found to have a connexin 26 inhibitory activity

## CCCCCCCC/C=C\CCCCCCC(CCCC(CCCCCC/C=C\CCCCCCCC)C(=O)N(CC)CC)C(=O)N(CC)CC (stereo not drawn) [MI-22, N^1,N^1,N^7,N^7-Tetraethyl-2,6-di[(Z)-7-hexadecenyl]-heptanediamide]
Rat connexin 26 (Cx26); [5]
  connexin 26 inhibitory activity: strong connexin 26 inhibitory activity; also recorded: strong connexin 26 inhibitory activities
Rat connexin 26 (Cx26); HeLa-Cx26, final concentration 20 μM, dye-transfer assay, FIG. 3
  GJIC score obtained through connexin 26: ≤ 2
Rat connexin 43 (Cx43)
  connexin 43 inhibitory activity: no connexin 43 inhibitory activity; also recorded: hardly inhibited the function of connexin 43; also recorded: no effect of inhibiting connexin 43 was found
Rat connexin 43 (Cx43); HeLa-Cx43, final concentration 20 μM, FIG. 3
  GJIC score obtained through connexin 43: almost the same as that of a control
[1]; C57BL/6 mice, intraperitoneal once a day
  spontaneous metastasis of cancer vs nontreatment (Nt) group, result in words: inhibited/suppressed spontaneous metastasis of cancer conspicuously
[1]; C57BL/6 mice, intraperitoneal once a day, 4 weeks after amputation, FIG. 4
  decrease of the number of metastatic foci in the lungs vs nontreatment (Nt) group: 80%
[1]; of 15 mice per group, FIG. 5 (Nt group: eight)
  number of mice with lungs with slight spontaneous metastasis: six
[1]; of 15 mice per group, FIG. 5 (Nt group: five)
  number of mice with lungs with considerable spontaneous metastasis: two
[1]; of 15 mice per group, FIG. 5 (Nt group: two)
  number of mice with lungs with no spontaneous metastasis of cancer: seven
Az521 cells [2]
  cytotoxicity (cell growth inhibitory potential), number of cells vs control: no significant difference between MI-22 and control; also recorded: not found
Az521 cells [3]; BALB/c nude mice, intraperitoneal twice a week, FIG. 7
  growth of tumors (weight of tumors) vs control mice group: suppressed conspicuously
Az521 cells [3]; nude mice, intraperitoneal, FIG. 8
  increase in the volume of tumors vs nontreatment mice group (NT): suppressed conspicuously
[4]
  solubility in an organic solvent: dissolves well in an organic solvent

## CCCCCCCC/C=C\CCCCCCC(CCCCCC(CCCCCC/C=C\CCCCCCCC)C(=O)N(CC)CC)C(=O)N(CC)CC (stereo not drawn) [MI-39, N^1,N^1,N^9,N^9-Tetraethyl-2,8-di[(Z)-7-hexadecenyl]nonanediamide]
Rat connexin 26 (Cx26); [5]
  connexin 26 inhibitory activity: strong connexin 26 inhibitory activity; also recorded: strong connexin 26 inhibitory activities
Rat connexin 43 (Cx43)
  connexin 43 inhibitory activity: no connexin 43 inhibitory activity; also recorded: hardly inhibited the function of connexin 43

## CCCCCCCC/C=C\CCCCCCCC(=O)NCCCNC(=O)CCCCCCC/C=C\CCCCCCCC [MI-45, N^1-[(Z)-3-Octadec-9-enoylaminopropyl]-(Z)-9octadecenamide]
Rat connexin 26 (Cx26); [5]
  connexin 26 inhibitory activity: strong connexin 26 inhibitory activity; also recorded: strong connexin 26 inhibitory activities
Rat connexin 43 (Cx43)
  connexin 43 inhibitory activity: no connexin 43 inhibitory activity; also recorded: hardly inhibited the function of connexin 43

Source: patent US7846972B2, “Multimeric oleamide derivative having connexin-26 inhibiting potency and use thereof in cancer therapy, etc” (The New Industrial Research Organization, priority 2004, dated 2010)
